Measurements published in PubChem BioAssay AID2060614 (Molecular Pharmacology Branch, DTP, NCI, 2025).
pIC50: −log10 of the molar value.

Tested on: 598228-144-R-J1-PDC complex spheroids, viability
Assay: Anticancer human tumor 598228-144-R-J1-PDC patient-derived serous endometrial adenocarcinoma cell line growth inhibition [CLK]
Details: for pIC50: curve of first compound; for viability, T/C: stronger effect = lower value
Procedure, shortened: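 Multi-cell-type spheroids combined patient-derived tumor cells with HUVEC endothelial cells and human mesenchymal stem cells. Paired agents were dosed in half-log steps down from about clinical Cmax, or from 10 microM where Cmax was unknown.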

[1] = second compound 0.0316 µM, first compound 0.0316 µM
[2] = second compound 0.0316 µM, first compound 0.1 µM
[3] = second compound 0.1 µM, first compound 0.0316 µM
[4] = second compound 0.1 µM, first compound 0.1 µM
[5] = second compound 0.316 µM, first compound 0.0316 µM
[6] = second compound 0.316 µM, first compound 0.1 µM
[7] = second compound 1 µM, first compound 0.0316 µM
[8] = second compound 1 µM, first compound 0.1 µM
[9] = second compound 3.16 µM, first compound 0.0316 µM
[10] = second compound 3.16 µM, first compound 0.1 µM
[11] = second compound 10 µM, first compound 0.0316 µM
[12] = second compound 10 µM, first compound 0.1 µM
[13] = second compound 0.0316 µM, first compound 0.316 µM
[14] = second compound 0.0316 µM, first compound 1 µM
[15] = second compound 0.0316 µM, first compound 3.16 µM
[16] = second compound 0.0316 µM, first compound 10 µM
[17] = second compound 0.1 µM, first compound 0.316 µM
[18] = second compound 0.1 µM, first compound 1 µM
[19] = second compound 0.1 µM, first compound 3.16 µM
[20] = second compound 0.1 µM, first compound 10 µM
[21] = second compound 0.316 µM, first compound 0.316 µM
[22] = second compound 0.316 µM, first compound 1 µM
[23] = second compound 0.316 µM, first compound 3.16 µM
[24] = second compound 0.316 µM, first compound 10 µM
[25] = second compound 1 µM, first compound 0.316 µM
[26] = second compound 1 µM, first compound 1 µM
[27] = second compound 1 µM, first compound 3.16 µM
[28] = second compound 1 µM, first compound 10 µM
[29] = second compound 3.16 µM, first compound 0.316 µM
[30] = second compound 3.16 µM, first compound 1 µM
[31] = second compound 3.16 µM, first compound 3.16 µM
[32] = second compound 3.16 µM, first compound 10 µM
[33] = second compound 10 µM, first compound 0.316 µM
[34] = second compound 10 µM, first compound 1 µM
[35] = second compound 10 µM, first compound 3.16 µM
[36] = second compound 10 µM, first compound 10 µM
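Further: spheroids exposed to compounds for seven days before readout.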
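Wherever viability, T/C is given: 100% = DMSO vehicle control wells.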

How did the pIC50 (second compound 0.0316 µM) turn out when Cn1ncnc1[C@H]1c2n[nH]c(=O)c3cc(F)cc(c23)N[C@@H]1c1ccc(F)cc1 + CN1CCN(c2cc(C(=O)Nc3cc4cc(-c5cnn(C)c5)ccc4cn3)ccn2)CC1 was run?
Its pIC50 is < 7.00.

What about the pIC50 (second compound 0.1 µM) of the same compound?
The pIC50 was < 7.00.

What about the pIC50 (second compound 0.316 µM) of the same compound?
The pIC50 was > 9.50.

And the pIC50 (second compound 1 µM)?
The pIC50 was > 9.50.

And the pIC50 (second compound 3.16 µM)?
The pIC50 was > 9.50.

And the pIC50 (second compound 10 µM)?
The pIC50 was > 9.50.

And the viability, T/C (second compound 0.0316 µM, first compound 0.000316 µM)?
The viability, T/C was 126%.

What about the viability, T/C (second compound 0.0316 µM, first compound 0.001 µM) of the same compound?
Its viability, T/C is 119%.

And the viability, T/C (second compound 0.0316 µM, first compound 0.00316 µM)?
Its viability, T/C is 107%.

And the viability, T/C (second compound 0.0316 µM, first compound 0.01 µM)?
Its viability, T/C is 113%.

And the viability, T/C [1]?
The viability, T/C was 107%.

And the viability, T/C [2]?
Its viability, T/C is 122%.

What about the viability, T/C (second compound 0.1 µM, first compound 0.000316 µM) of the same compound?
The viability, T/C was 117%.

And the viability, T/C (second compound 0.1 µM, first compound 0.001 µM)?
The viability, T/C was 125%.

And the viability, T/C (second compound 0.1 µM, first compound 0.00316 µM)?
The viability, T/C was 114%.

What about the viability, T/C (second compound 0.1 µM, first compound 0.01 µM) of the same compound?
The viability, T/C was 116%.

And the viability, T/C [3]?
The viability, T/C was 133%.

And the viability, T/C [4]?
The viability, T/C was 129%.

What about the viability, T/C (second compound 0.316 µM, first compound 0.000316 µM) of the same compound?
Its viability, T/C is 19.3%.

And the viability, T/C (second compound 0.316 µM, first compound 0.001 µM)?
The viability, T/C was 19.1%.

What about the viability, T/C (second compound 0.316 µM, first compound 0.00316 µM) of the same compound?
The viability, T/C was 16.3%.

And the viability, T/C (second compound 0.316 µM, first compound 0.01 µM)?
The viability, T/C was 19%.

What about the viability, T/C [5] of the same compound?
Its viability, T/C is 18.8%.

And the viability, T/C [6]?
Its viability, T/C is 16.7%.

What about the viability, T/C (second compound 1 µM, first compound 0.000316 µM) of the same compound?
Its viability, T/C is 1.63%.

And the viability, T/C (second compound 1 µM, first compound 0.001 µM)?
The viability, T/C was 1.39%.

What about the viability, T/C (second compound 1 µM, first compound 0.00316 µM) of the same compound?
Its viability, T/C is 1.72%.

What about the viability, T/C (second compound 1 µM, first compound 0.01 µM) of the same compound?
The viability, T/C was 1.32%.

And the viability, T/C [7]?
The viability, T/C was 3.04%.

And the viability, T/C [8]?
The viability, T/C was 3.99%.

And the viability, T/C (second compound 3.16 µM, first compound 0.000316 µM)?
Its viability, T/C is 1.68%.

And the viability, T/C (second compound 3.16 µM, first compound 0.001 µM)?
The viability, T/C was 3.14%.

And the viability, T/C (second compound 3.16 µM, first compound 0.00316 µM)?
The viability, T/C was 1.85%.

And the viability, T/C (second compound 3.16 µM, first compound 0.01 µM)?
The viability, T/C was 2.2%.

What about the viability, T/C [9] of the same compound?
The viability, T/C was 1.94%.

And the viability, T/C [10]?
Its viability, T/C is 6.61%.

What about the viability, T/C (second compound 10 µM, first compound 0.000316 µM) of the same compound?
The viability, T/C was 1.05%.

What about the viability, T/C (second compound 10 µM, first compound 0.001 µM) of the same compound?
The viability, T/C was 2.11%.

What about the viability, T/C (second compound 10 µM, first compound 0.00316 µM) of the same compound?
The viability, T/C was 1.83%.

What about the viability, T/C (second compound 10 µM, first compound 0.01 µM) of the same compound?
The viability, T/C was 0.71%.

And the viability, T/C [11]?
Its viability, T/C is 3.42%.

And the viability, T/C [12]?
The viability, T/C was 4.51%.

What does the source list for Nc1ccn(C2OC(CO)C(O)C2(F)F)c(=O)n1 (stereo unspecified) + CN1CCN(c2cc(C(=O)Nc3cc4cc(-c5cnn(C)c5)ccc4cn3)ccn2)CC1?
pIC50 (second compound 0.0316 µM): > 7.50; pIC50 (second compound 0.1 µM): > 7.50; pIC50 (second compound 0.316 µM): > 7.50; pIC50 (second compound 1 µM): > 7.50; pIC50 (second compound 3.16 µM): > 7.50; pIC50 (second compound 10 µM): > 7.50; viability, T/C [1]: 42.6%; viability, T/C [2]: 23.5%; viability, T/C [13]: 24.3%; viability, T/C [14]: 21.2%; viability, T/C [15]: 23.4%; viability, T/C [16]: 28.3%; viability, T/C [3]: 46.5%; viability, T/C [4]: 26.8%; viability, T/C [17]: 25.4%; viability, T/C [18]: 28.5%; viability, T/C [19]: 28.5%; viability, T/C [20]: 29.5%; viability, T/C [5]: 18%; viability, T/C [6]: 16.9%; viability, T/C [21]: 14%; viability, T/C [22]: 15.4%; viability, T/C [23]: 17%; viability, T/C [24]: 16.9%; viability, T/C [7]: 3.9%; viability, T/C [8]: 1.1%; viability, T/C [25]: 2.41%; viability, T/C [26]: 1.35%; viability, T/C [27]: 2.84%; viability, T/C [28]: 4.14%; viability, T/C [9]: 1.84%; viability, T/C [10]: 4.4%; viability, T/C [29]: 1.37%; viability, T/C [30]: 1.5%; viability, T/C [31]: 5.71%; viability, T/C [32]: 5.03%; viability, T/C [11]: 0.74%; viability, T/C [12]: 0.77%; viability, T/C [33]: 2.69%; viability, T/C [34]: 0.88%; viability, T/C [35]: 5.39%; viability, T/C [36]: 1.96%

What does the source list for O=c1[nH]cc(F)c(=O)[nH]1 + CN1CCN(c2cc(C(=O)Nc3cc4cc(-c5cnn(C)c5)ccc4cn3)ccn2)CC1?
pIC50 (second compound 0.0316 µM): < 5.00; pIC50 (second compound 0.1 µM): < 5.00; pIC50 (second compound 0.316 µM): > 7.50; pIC50 (second compound 1 µM): > 7.50; pIC50 (second compound 3.16 µM): > 7.50; pIC50 (second compound 10 µM): > 7.50; viability, T/C [1]: 128%; viability, T/C [2]: 120%; viability, T/C [13]: 132%; viability, T/C [14]: 125%; viability, T/C [15]: 125%; viability, T/C [16]: 96.5%; viability, T/C [3]: 149%; viability, T/C [4]: 119%; viability, T/C [17]: 123%; viability, T/C [18]: 139%; viability, T/C [19]: 113%; viability, T/C [20]: 96%; viability, T/C [5]: 20.4%; viability, T/C [6]: 25%; viability, T/C [21]: 18.3%; viability, T/C [22]: 18%; viability, T/C [23]: 18.1%; viability, T/C [24]: 21.4%; viability, T/C [7]: 1.7%; viability, T/C [8]: 1.4%; viability, T/C [25]: 1.3%; viability, T/C [26]: 1.91%; viability, T/C [27]: 4.01%; viability, T/C [28]: 5.93%; viability, T/C [9]: 1.76%; viability, T/C [10]: 3.81%; viability, T/C [29]: 1.88%; viability, T/C [30]: 2.14%; viability, T/C [31]: 1.46%; viability, T/C [32]: 5.59%; viability, T/C [11]: 0.99%; viability, T/C [12]: 0.93%; viability, T/C [33]: 0.6%; viability, T/C [34]: 1.01%; viability, T/C [35]: 5.93%; viability, T/C [36]: 4.87%
